Data taken from patent US20260248773A1, “POTASSIUM CHANNEL BLOCKERS OR DERIVATIVES THEREOF FOR PREVENTING, ALLEVIATING, AND/OR TREATING TISSUE DYSFUNCTION CAUSED BY TOXIC INSULTS” (priority 2022, published 2026).

Assays:
[1] = system: chemotherapy-induced peripheral neuropathy (CIPN) caused by PTX; conditions: mouse, in vivo
Experimental: More specifically, initial studies were conducted on the specific case of CIPN as induced by exposure to PTX. […] 16 week old C73L/6 female mice were given a single dose of 35 mg/kg PTX (i.p.). Animals were separated into control (saline, i.p., n=4) or treatment group (2 mg/kg 4-AP daily, i.p., n=4). Pre-treatment Catwalk scores were compared to 21 days post-PTX injection.
To align with clinical treatments, mice were treated with a PTX dose of 35 mg/kg (equivalent to approximately 110 mg/m^2 and within the clinical treatment range) for four cycles, each three weeks apart.
The studies also included a 4-AP treatment arm (n=4) with a daily dose of 2 mg/kg 4-AP administered i.p. (as per most previous studies by MN and colleagues).
To evaluate detailed functional changes in gait, the CatWalk™ (Noldus Information Technology, Wageningen, The Netherlands) method was implemented.
Sciatic nerve samples were harvested and resin-embedded, sectioned and imaged using transmission electron microscopy. Images were analyzed to calculate markers of peripheral neuropathy, namely: axon counts, fiber size, myelination (g ratio), and circumferential irregularity (FIG. 2).

kidney = assay: Kidney histology (H&E) after PTX with or without 4-AP (Example 8); assay type: in vivo, mice; conditions: PTX treated, daily saline
Experimental: To examine effects on the kidney histological studies were conducted on this tissue. Mice received PTX on day 0 of the experiment, and half of those mice also were injected with 4-AP at this time, and every day thereafter, at a dosage of 2 mg/kg. Mice not receiving 4-AP were injected with saline to control for any stress induced by daily injections. Experimental groups also included mice receiving no PTX treatment, and treated only with daily injections of saline. Mice were sacrificed after 1 week. Mice were perfused with 4% paraformaldehyde and kidneys were sectioned and stained with haematoxylin & eosin (H&E).

[2] = system: glial fibrillary acidic protein (GFAP); assay: GFAP immunofluorescence in corpus callosum after PTX with or without 4-AP (Example 9); assay type: in vivo; conditions: E0771 tumor-bearing mice; PTX 35 mg/kg day one
Experimental: To determine whether 4-AP treatment can prevent PTX-induced increases in a reactive inflammatory response in the brain, as detected by increased expression of glial fibrillary acidic protein (GFAP), 16-week-old female C57BL/6 mice were inoculated with a triple negative murine breast cancer cell line E0771. When tumors were palpable, the mice were injected with either paclitaxel and water, 4-AP, both, or saline as a control. Paclitaxel (35 mg/kg) was injected on day one and 4-AP and water were injected daily. The mice were sacrificed on day nine and their brains were perfused and harvested. Brains were cryosectioned coronally.
The mouse brain sections were stained with anti-GFAP antibodies, followed by a fluorescent secondary, for analysis via immunofluorescence.

CIPN = conditions: 0-10 point scale; cited from earlier work

| Structure (SMILES) | tolerability of PTX dose [1] | kidney histology after PTX, H&E staining (kidney) | expression of GFAP after PTX, corpus callosum [2] | average reduction in pain (CIPN) [point] |
| --- | --- | --- | --- | --- |
| CC(=O)O[C@H]1C(=O)[C@@]2(C)[C@H]([C@H](OC(=O)c3ccccc3)[C@]3(O)C[C@H](OC(=O)[C@H](O)[C@@H](NC(=O)c4ccccc4)c4ccccc4)C(C)=C1C3(C)C)[C@]1(OC(C)=O)CO[C@@H]1C[C@@H]2O [PTX, paclitaxel] | tolerated the dose | Loss of brush borders (dark grey arrows), nuclear dropout (grey arrow), and blebbing of tubular epithelial cells | increased expression of GFAP | – |
| CNCC[C@H](Oc1cccc2ccccc12)c1cccs1 [duloxetine] | – | – | – | 0.72 |
